The values that follow come from patent US20220370453A1 (Storm Therapeutics Ltd, priority 2019, published 2022).

Experiment [1] addresses T1, BCDIN3D (Homo sapiens, UniProt Q7Z5W3).
T1 sequence (Q7Z5W3 1-292): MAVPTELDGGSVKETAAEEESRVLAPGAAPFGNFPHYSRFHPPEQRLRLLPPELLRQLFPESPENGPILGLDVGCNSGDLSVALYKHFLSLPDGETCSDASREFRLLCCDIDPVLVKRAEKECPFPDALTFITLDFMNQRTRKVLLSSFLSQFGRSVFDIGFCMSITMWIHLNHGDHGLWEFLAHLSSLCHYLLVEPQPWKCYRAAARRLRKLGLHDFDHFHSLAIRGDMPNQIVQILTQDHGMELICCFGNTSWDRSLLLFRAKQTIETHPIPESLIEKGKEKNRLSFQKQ
The experiment can be described thus: BCDIN3D IC50 RFMS (RapidFire) assay with mini-helix. In kind it is biochemical. Conditions: 25 nM enzyme. The essentials: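 25 nM enzyme preincubated 10 min at room temperature with compound (1% DMSO) in 25 mM Tris pH 8.0, 10 mM DTT, 1 mM EDTA, 0.03% BSA. Reaction started with 0.2 μM mini-helix plus 6 μM SAM, run 1 h at 37 °C, quenched with TCA; SAH product quantified by RapidFire MS against isotopic SAH standards.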

Experiment [2] deals with T1, BCDIN3D. The experiment is described as follows: BCDIN3D InCellPulse thermal stability assay in transfected A549 cells. Conditions: heat shock 58° C. 15 min. In kind it is cell-based. The essentials: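 A549 cells transiently expressing BCDIN3D N-terminally fused to ePL ProLabel tag, 1500 cells/well, pre-incubated 1 h at 37 °C with compound (0.6% DMSO). Heat shock 58 °C for 15 min; remaining soluble fusion detected by split β-galactosidase complementation luminescence.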

The mark [3] stands for this setting: mini-helix substrate 0.2 μM, SAM 6 μM.
Where [4] appears, read: transiently transfected A549 cells.

As a reminder, the IC50 is the point on the concentration scale where inhibition reaches its midpoint. Turning to `Cn1ncc2c(Nc3ccc(OC(F)(F)F)cc3)nc(NCC(C)(N)c3ccccc3)nc21` (stereo not shown) [Compound 4.12, N6-(2-amino-2-phenyl-propyl)-1-methyl-N4-[4-(trifluoromethoxy)phenyl]pyrazolo[3,4-d]pyrimidine-4,6-diamine], the half-inhibitory concentration (IC50) against BCDIN3D [1] (setting [3]) is 52.1 nM; on BCDIN3D [2] (setting [4]), 186 nM.
Taken in the same sequence, the figures for `CC(C)Nc1nc(NC[C@H](N)c2cccc(Br)c2)nc2c1cnn2C` [Compound 5.15, N6-[(2R)-2-amino-2-(3-bromophenyl)ethyl]-N4-isopropyl-1-methyl-pyrazolo[3,4-d]pyrimidine-4,6-diamine] were 28.4 nM and 47.1 nM.
The like results for `Cn1ncc2c(Nc3ccc(C(F)(F)F)nc3)nc(NCC(C)(N)c3ccccc3)nc21` (stereo not shown) [Compound 4.26, 6-N-(2-amino-2-phenylpropyl)-1-methyl-4-N-[6-(trifluoromethyl)pyridin-3-yl]pyrazolo[3,4-d]pyrimidine-4,6-diamine] were, in that order, 21.7 nM and 384 nM.
Taken in the same sequence, the figures for `Cn1ncc2c(NC34CC(F)(C3)C4)nc(NCC(N)c3ccccc3)nc21` (stereo not shown) [Compound 4.65, N6-(2-amino-2-phenylethyl)-N4-{3-fluorobicyclo[1.1.1]pentan-1-yl}-1-methyl-1H-pyrazolo[3,4-d]pyrimidine-4,6-diamine] were 230 nM and 616 nM.
On to `Cn1ncc2c(Nc3ccc(C(F)(F)F)nc3)nc(NCC3(N)CCOC3)nc21` (stereo not shown) [Compound 3.15, N6-[(3-aminotetrahydrofuran-3-yl)methyl]-1-methyl-N4-[6-(trifluoromethyl)-3-pyridyl]pyrazolo[3,4-d]pyrimidine-4,6-diamine], for which the half-maximal inhibitory concentration (IC50) was 1630 nM against BCDIN3D [1] (setting [3]) and 6540 nM against BCDIN3D [2] (setting [4]).
Taken in the same sequence, the figures for `Cn1ncc2c(NCc3ccc(Br)cc3)nc(NCC3(N)CC3)nc21` [Compound 2.13, 6-N-[(1-aminocyclopropyl)methyl]-4-N-[(4-bromophenyl)methyl]-1-methylpyrazolo[3,4-d]pyrimidine-4,6-diamine] were 369 nM and 1610 nM.
Taken in the same sequence, the figures for `CCn1ncc2c(Nc3ccc(C(F)(F)F)cc3)nc(NCC3(N)CC3)nc21` [Compound 2.48, 6-N-[(1-aminocyclopropyl)methyl]-1-ethyl-4-N-[4-(trifluoromethyl)phenyl]pyrazolo[3,4-d]pyrimidine-4,6-diamine] were 1080 nM and 2430 nM.
The like results for `COc1ccc(Nc2nc(NC[C@H](N)c3ccccc3)nc3c2cnn3C)cc1` [Compound 4.32, N6-[(2R)-2-amino-2-phenyl-ethyl]-N4-(4-methoxyphenyl)-1-methyl-pyrazolo[3,4-d]pyrimidine-4,6-diamine] were, in that order, 95.8 nM and 140 nM.
Consider `CCN(C)c1nc(NCC(N)c2ccccc2)nc2c1cnn2C` (stereo not shown) [Compound 4.42, 6-N-(2-amino-2-phenylethyl)-4-N-ethyl-4-N,1-dimethylpyrazolo[3,4-d]pyrimidine-4,6-diamine], for which the values for the half-maximal inhibitory concentration (IC50) at BCDIN3D [1] (setting [3]) and on BCDIN3D [2] (setting [4]) were 2280 nM and 7570 nM, respectively.
Take `Cn1ncc2c(NCc3cccc(Br)c3)nc(NCC(N)c3ccccc3)nc21` (stereo not shown) [Compound 4.06, 6-N-(2-amino-2-phenylethyl)-4-N-[(3-bromophenyl)methyl]-1-methylpyrazolo[3,4-d]pyrimidine-4,6-diamine]: the IC50 against BCDIN3D [1] (setting [3]) came out at 87.2 nM; on BCDIN3D [2] (setting [4]) it was 139 nM.
As for `Cn1ncc2c(Nc3ccc(OC(F)F)cc3)nc(NCC(N)c3ccccc3)nc21` (stereo not shown) [Compound 4.14, 6-N-(2-amino-2-phenylethyl)-4-N-[4-(difluoromethoxy)phenyl]-1-methylpyrazolo[3,4-d]pyrimidine-4,6-diamine], the IC50 against BCDIN3D [1] (setting [3]) was 89.5 nM; at BCDIN3D [2] (setting [4]), 206 nM.
Taken in the same sequence, the figures for `Cn1ncc2c(Nc3ccc(C(F)(F)F)cc3)nc(NCC3(N)CCOC3)nc21` (stereo not shown) [Compound 3.14, 6-N-[(3-aminooxolan-3-yl)methyl]-1-methyl-4-N-[4-(trifluoromethyl)phenyl]pyrazolo[3,4-d]pyrimidine-4,6-diamine] were 252 nM and 2410 nM.
Taken in the same sequence, the figures for `Cn1ncc2c(Nc3ccc(OC(F)F)cc3)nc(NCC3(N)CCC3)nc21` [Compound 3.09, N6-[(1-aminocyclobutyl)methyl]-N4-[4-(difluoromethoxy)phenyl]-1-methyl-pyrazolo[3,4-d]pyrimidine-4,6-diamine] were 201 nM and 503 nM.
Taken in the same sequence, the figures for `Cn1ncc2c(NCC(F)(F)F)nc(NC[C@H](N)c3ccccc3)nc21` [Compound 4.45, N6-[(2R)-2-amino-2-phenyl-ethyl]-1-methyl-N4-(2,2,2-trifluoroethyl)pyrazolo[3,4-d]pyrimidine-4,6-diamine] were 316 nM and 414 nM.
On to `Cn1ncc2c(Nc3ccc(Cl)c(C#N)c3)nc(NCC3(N)CC3)nc21` [Compound 2.17, 5-[[6-[(1-aminocyclopropyl)methylamino]-1-methyl-pyrazolo[3,4-d]pyrimidin-4-yl]amino]-2-chloro-benzonitrile], for which the results for the IC50 against BCDIN3D [1] (setting [3]) and on BCDIN3D [2] (setting [4]) were 440 nM and 2560 nM, respectively.
`Cc1ccc(CNc2nc(NC3CCCCC3N)nc3c2cnn3C)cc1Cl` (stereo not shown) [Compound 1.34, 6-N-(2-aminocyclohexyl)-4-N-[(3-chloro-4-methylphenyl)methyl]-1-methylpyrazolo[3,4-d]pyrimidine-4,6-diamine]: the IC50 at BCDIN3D [1] (mini-helix 0.2 μM and SAM 6 μM as substrates, 1 hr at 37° C.) was found to be 1140 nM; against BCDIN3D [2] (A549 cells transiently transfected with ePL-BCDIN3D, 1 h pre-incubation), 1410 nM.
For the compound `Cn1ncc2c(NCC3CC34CC4)nc(NC[C@H](N)c3ccccc3)nc21` (stereo partly drawn) [Compound 4.60, N6-[(2R)-2-amino-2-phenyl-ethyl]-1-methyl-N4-(spiro[2.2]pentan-2-ylmethyl)pyrazolo[3,4-d]pyrimidine-4,6-diamine], the IC50 against BCDIN3D [1] (setting [3]) stood at 6.1 nM; at BCDIN3D [2] (setting [4]), 44.4 nM.
